# Laboratory results reported in patent publication US20200001120A1, “APPARATUS, METHOD, AND USE FOR ULTRASOUND MEDIATED MICROBUBBLE DELIVERY OF PHARMACEUTICAL COMPOSITIONS” (priority 2017, published 2020).
# Test system: E. coli
# Test: E. coli pneumonia in mice: gentamicin with or without USMB, cfu in lung homogenates
# Format: in vivo, C57BL/6 mice
# Method: To establish whether USMB enhances antibiotic delivery to the injured lung, gentamicin (1.5 mg/kg) was administered to mice by intraperitoneal injection 6 hours after infection with E. coli to determine whether USMB conferred any additional benefit to treatment with antibiotics or microbubbles alone. This relatively low dose of gentamicin was chosen as it is relatively slow and achieves incomplete clearance of lung pathogens and thus allows any benefit of USMB to become apparent. In humans, high doses of gentamicin are known to cause nephro- and ototoxicity, making it contraindicated for human use at high doses.
# C57BL/6 mice were infected intratracheally with 1×10^7 colony forming units (cfu) of E. coli and received 1.5 mg/kg of gentamicin by intraperitoneal injection 6 hours later. Thirty minutes later, the mice were then injected intravenously with 1×10^9 microbubbles (Definity™) by tail vein. (Definity™ is an approved microbubble preparation that is used for diagnostic imaging in intensive care unit patients.) This was followed by thoracic ultrasound administration for five minutes. The ultrasound treatment conditions were the same as those used in Example 1. Eighteen hours later, mice were euthanized by cervical dislocation and lungs were homogenized for cfu. Lung homogenates were plated on agar to measure bacterial growth. Each experiment was repeated twice with 3 mice per group. Control mice received microbubbles and antibiotic without ultrasound (MB+ antibiotics) or antibiotics alone (PBS and antibiotics). Other control mice received no antibiotics. […] Data are mean plus SEM (SD if <3 mice) with each dot representing a separate animal. Note the >1 log-fold reduction in cfu in the mice receiving USMB with antibiotics (left-most group) compared to microbubbles/antibiotics alone. An ELISA performed on lung homogenates and plasma measures gentamicin levels.
substance,measurement,setting,value
gentamicin,reduction in cfu in lung homogenates,"gentamicin 1.5 mg/kg i.p. plus USMB vs microbubbles/antibiotics alone, 18 hours later",> 1 log-fold
same,reduction in bacterial growth caused by USMB,"gentamicin 1.5 mg/kg i.p. plus USMB, both replicates",10 fold
same,bacterial colony forming units (cfu),"gentamicin alone, 1.5 mg/kg i.p.",reduction
same,benefit over antibiotics alone,microbubbles and antibiotics without ultrasound,no benefit
